The text below walks through data of patent US12312359B2 (Vitae Pharmaceuticals, LLC, priority 2016, dated 2025).

Test [1] relates to human acute monocytic leukemia cell line MV-4-11. The experiment in a line: Assay 2: cell proliferation assay (ATP quantitation, CellTiter-Glo), MV-4-11. The test is classed as cell-based. The note with it: MV-4-11 cells. The method, then: Potencies of inhibitor compounds against cell proliferation was assessed against the human acute monocytic leukemia cell line MV-4-11 (ATCC® CRL-9591™) based on ATP quantitation. MV-4-11 cells or toxicity control HL-60 cells (ATCC® CCL-240™) were incubated in 96-well tissue culture plates (1.67×10^4 cells in 200 μL culture media containing 10% FBS per well) with or without test compound for 72 h at 37° C., 5% CO2. After incubation, each well was mixed by pipetting and 95 μL from each well was transferred to a well in 96-well black OptiPlate® plates (PerkinElmer). An equal volume of CellTiter-Glo® Luminescent Cell Viability Assay reagent (Promega) was added to each well, followed by mixing for 5 min on an orbital plate shaker. Luminescence was measured on a Wallac EnVision 2104 Multilabel Reader (PerkinElmer) to quantitate ATP.

Test [2] addresses T1, biotinylated wild-type menin and MLL-AF9 fusion protein (menin/MLL binding) (Homo sapiens, UniProt O00255).
T1 construct: made in house; host or cells: menin: E. coli; MLL-AF9-FLAG: HEK293 cells, used as cleared lysate
T1 sequence (O00255 1-610): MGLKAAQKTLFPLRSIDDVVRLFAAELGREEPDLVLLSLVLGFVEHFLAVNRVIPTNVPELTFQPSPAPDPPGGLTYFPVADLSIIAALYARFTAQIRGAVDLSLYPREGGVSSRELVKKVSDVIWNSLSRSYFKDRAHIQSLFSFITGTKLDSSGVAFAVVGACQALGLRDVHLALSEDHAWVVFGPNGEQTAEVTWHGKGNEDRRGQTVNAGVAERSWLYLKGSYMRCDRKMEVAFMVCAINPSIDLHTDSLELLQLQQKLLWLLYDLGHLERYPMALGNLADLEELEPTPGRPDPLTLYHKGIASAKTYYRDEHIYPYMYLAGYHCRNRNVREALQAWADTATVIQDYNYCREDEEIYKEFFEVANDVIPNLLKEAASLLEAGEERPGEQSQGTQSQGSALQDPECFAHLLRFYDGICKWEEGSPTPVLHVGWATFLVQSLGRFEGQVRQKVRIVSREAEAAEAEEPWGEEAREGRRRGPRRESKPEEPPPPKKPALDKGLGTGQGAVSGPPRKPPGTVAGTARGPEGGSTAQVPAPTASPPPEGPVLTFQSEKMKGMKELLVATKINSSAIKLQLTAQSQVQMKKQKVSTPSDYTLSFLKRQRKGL
The experiment in a line: Assay 1: menin/MLL binding AlphaLISA assay, wild-type menin. As to conditions: Table 30; column head does not say wild-type or mutated menin. The method, then:
Potencies of inhibitor compounds against menin/MLL binding were assessed by AlphaLISA assay using biotinylated (1) wild-type menin or (2) mutated menin (described in Huang et al, 2012, Nature, 482, 542-546) and MLL-AF9 fusion protein bearing a FLAG epitope at its C-terminus. Menin proteins were expressed in E. coli and covalently modified with biotin using EZ-Link™ Sulfo-NHS-Biotin (ThermoFisher Cat.No. 21217) according to manufacturer's protocol. MLL1-1,396 fused to AF91-92 and the C-terminal FLAG peptide was expressed in HEK293 cells and used as a lysate cleared at 21,000×g for 10 min.
Compounds (2 μL of solutions in DMSO) were dispensed in white 96-well half-area plates (Corning Cat.No. 3693) and incubated for 30 min at RT with 5 nM biotinylated menin and appropriate amount of MLL-AF9-FLAG lysate in 40 μL of 50 mM Tris-HCl buffer pH 7.4 containing 5% (v/v) DMSO, 50 mM NaCl, 0.01% (w/v) bovine serum albumin (BSA) and 1 mM DTT. To this incubation mixture, 40 μL of AlphaLISA anti-FLAG acceptor (PerkinElmer Cat.No. AL112C) and streptavidin donor (PerkinElmer Cat.No. 6760002) beads (10 μg/mL each) was added and incubation continued at RT for 60 min. Alpha (amplified luminescent proximity homogeneous assay) signal was measured on an Envision multi-label plate reader at the end of the incubation. All steps were conducted under dim fluorescent light.
These percent inhibition values were regressed against compound concentrations in the assay using four parameter logit non-linear curve fitting (XLFit, IDBS). The IC50 values were derived from the curve fitting as inflection points on the dose-response curves and are set out in Table 30 below.

With “2-((4-(7-(((1r,4r)-4- (3,3- dimethylureido)cyclo- hexyl) methyl)- 2,7-diazaspiro [3.5]nonan-2- yl)pyrimidin-5- yl)oxy)-5-fluoro- N,N-diisopropyl benzamide [Example 97]”, the EC50 in test [1] (72 h) was in the range of 100 to 1000 nM. In test [2], this molecule gave an IC50 of under 100 nM.
The molecule “5-((7-(5-(4-fluoro-2-(3-fluoro-3-methylbutyl)phenoxy) pyrimidin-4-yl)-2,7-diazaspiro[4.4]nonan-2-yl)methyl)-1H-benzo[d]imidazol-2(3H)-one [Example 35]” came in with an EC50 in test [1] (72 h) of 100 to 1000 nM. This molecule also gave an IC50 in test [2] of under 100 nM.
In the case of `CC(C)N(C(=O)c1cc(F)ccc1Oc1cncnc1N1CCC2(CCN(Cc3ccc4[nH]c(=O)[nH]c4c3)C2)C1)C(C)C` (racemic) [Example 1, 5-fluoro-N,N-diisopropyl-2-((4-(7-((2-oxo-2,3-dihydro-1H-benzo[d]imidazol-5-yl)methyl)-2,7-diazaspiro[4.4]nonan-2-yl)pyrimidin-5-yl)oxy)benzamide], the EC50 in test [1] (Homo sapiens, MV4-11, 72 h) was under 100 nM. Moreover, in test [2], the concentration for half-maximal inhibition (IC50) was under 100 nM.
Regarding `CCN(C(=O)c1cc(F)ccc1Oc1cncnc1N1CCC2(CCN(Cc3ccc4[nH]c(=O)[nH]c4c3)C2)C1)C(C)C` (racemic) [Example 2, N-ethyl-5-fluoro-N-isopropyl-2-((4-(7-((2-oxo-2,3-dihydro-1H-benzo[d]imidazol-5-yl)methyl)-2,7-diazaspiro[4.4]nonan-2-yl)pyrimidin-5-yl)oxy)benzamide], in test [1] (Homo sapiens, MV4-11, 72 h), the EC50 is under 100 nM. The same molecule registered an IC50 in test [2] of under 100 nM.
In turn, `Cn1c(-c2cc(F)ccc2Oc2cncnc2N2CCC3(CCN(Cc4ccc5[nH]c(=O)[nH]c5c4)C3)C2)c(C2CC2)ccc1=O` (racemic) [Example 29, 5-((7-(5-(2-(3-cyclopropyl-1-methyl-6-oxo-1,6-dihydropyridin-2-yl)-4-fluorophenoxy)pyrimidin-4-yl)-2,7-diazaspiro[4.4]nonan-2-yl)methyl)-1,3-dihydro-2H-benzo[d]imidazol-2-one] showed an EC50 in test [1] (Homo sapiens, MV4-11, 72 h) of under 100 nM. The same molecule returned an IC50 in test [2] of under 100 nM.
In the case of `CC(O)c1ccccc1-c1cc(F)ccc1Oc1cncnc1N1CCC2(CCN(Cc3ccc4[nH]c(=O)[nH]c4c3)C2)C1` (single isomer, unassigned) [Example 60B, 5-((7-(5-((5-fluoro-2′-(1-hydroxyethyl)-[1,1′-biphenyl]-2-yl)oxy)pyrimidin-4-yl)-2,7-diazaspiro[4.4]nonan-2-yl)methyl)-1H-benzo[d]imidazol-2(3H)-one], in test [1] (72 h), the EC50 was under 100 nM.
Same read-out and setting: the same measure for `CC(O)c1ccccc1-c1cc(F)ccc1Oc1cncnc1N1CCC2(CCN(Cc3ccc4[nH]c(=O)[nH]c4c3)C2)C1` (single isomer, unassigned) [Example 60C, 5-((7-(5-((5-fluoro-2′-(1-hydroxyethyl)-[1,1′-biphenyl]-2-yl)oxy)pyrimidin-4-yl)-2,7-diazaspiro[4.4]nonan-2-yl)methyl)-1H-benzo[d]imidazol-2(3H)-one]: under 100 nM; for `CC(O)c1ccccc1-c1cc(F)ccc1Oc1cncnc1N1CCC2(CCN(Cc3ccc4[nH]c(=O)[nH]c4c3)C2)C1` (single isomer, unassigned) [Example 60D, 5-((7-(5-((5-fluoro-2′-(1-hydroxyethyl)-[1,1′-biphenyl]-2-yl)oxy)pyrimidin-4-yl)-2,7-diazaspiro[4.4]nonan-2-yl)methyl)-1H-benzo[d]imidazol-2(3H)-one]: under 100 nM.
In turn, `CC(C)c1ncncc1-c1cc(F)ccc1Oc1cncnc1N1CCC2(CCC(Cc3ccccc3)C2)C1` (stereo not drawn) [Example 59, 7-benzyl-2-(5-(4-fluoro-2-(4-isopropylpyrimidin-5-yl)phenoxy)pyrimidin-4-yl)-2-azaspiro[4.4]nonane] returned an IC50 in test [2] of at least 1000 nM.
Same read-out and setting: the figure for `CC(C)N(C)C(=O)c1cc(F)ccc1Oc1cncnc1N1CCC2(CCN(Cc3cccc(N4CCOC4=O)c3)C2)C1` (stereo not drawn) [Example 61, 5-fluoro-N-isopropyl-N-methyl-2-((4-(7-(3-(2-oxooxazolidin-3-yl)benzyl)-2,7-diazaspiro[4.4]nonan-2-yl)pyrimidin-5-yl)oxy)benzamide] is 100 to 1000 nM.
As to `CCc1ccccc1-c1cc(F)ccc1Nc1cncnc1N1CCC2(CC1)CN(CC(C)(C)O)C2` [Example 71, 1-(7-(5-((2′-ethyl-5-fluoro-[1,1′-biphenyl]-2-yl)amino)pyrimidin-4-yl)-2,7-diazaspiro[3.5]nonan-2-yl)-2-methylpropan-2-ol], the half-maximal inhibitory concentration (IC50) in test [2] is under 100 nM.
For the molecule `CC(C)S(=O)(=O)Nc1cc(F)ccc1Oc1cncnc1N1CC2(CCN(C[C@H]3CC[C@H](NS(C)(=O)=O)CC3)CC2)C1` [Example 74, N-(5-fluoro-2-((4-(7-(((1r,4r)-4-(methylsulfonamido)cyclohexyl)methyl)-2,7-diazaspiro[3.5]nonan-2-yl)pyrimidin-5-yl)oxy)phenyl)propane-2-sulfonamide], the IC50 in test [2] was under 100 nM.
As to `CCc1ccccc1-c1cc(F)ccc1Cc1cnccc1N1CC2(CN(CC3CCOCC3)C2)C1` [Example 78, 2-(3-((2′-ethyl-5-fluoro-[1,1′-biphenyl]-2-yl)methyl)pyridin-4-yl)-6-((tetrahydro-2H-pyran-4-yl)methyl)-2,6-diazaspiro[3.3]heptane], in test [2], the IC50 lay in the range of 100 to 1000 nM.
Same read-out and setting: the figure for `CC(C)c1ncncc1-c1cc(F)ccc1Oc1cncnc1N1CCC2(CC(N3CCc4cc(F)ccc4C3)CO2)C1` (stereo not drawn) [Example 157, 7-(5-(4-fluoro-2-(4-isopropylpyrimidin-5-yl)phenoxy)pyrimidin-4-yl)-3-(6-fluoro-3,4-dihydroisoquinolin-2(1H)-yl)-1-oxa-7-azaspiro[4.4]nonane] is under 100 nM.
For `CC(C)c1ccccc1-c1cc(F)ccc1Nc1cncnc1N1CCC2(CCN(Cc3ccc4[nH]c(=O)[nH]c4c3)C2)C1` (stereo not drawn) [Example 243, 5-((7-(5-((5-fluoro-2′-isopropyl-[1,1′-biphenyl]-2-yl)amino)pyrimidin-4-yl)-2,7-diazaspiro [4.4]nonan-2-yl)methyl)-1,3-dihydro-2H-benzo[d]imidazol-2-one], in test [2], the IC50 was under 100 nM.
Same read-out and setting: the same measure for `CC(C)c1ncncc1-c1cc(F)ccc1Nc1cncnc1N1CC2(CN(CC3CCOCC3)C2)C1` [Example 244, N-(4-fluoro-2-(4-isopropylpyrimidin-5-yl)phenyl)-4-(6-((tetrahydro-2H-pyran-4-yl)methyl)-2,6-diazaspiro[3.3]heptan-2-yl) pyrimidin-5-amine]: under 100 nM.
`CC(C)CN1CC2(CCN(c3ncncc3Nc3ccc(F)cc3-c3ccccc3OC(C)C)CC2)C1` [Example 245, N-(5-fluoro-2′-isopropoxy-[1,1′-biphenyl]-2-yl)-4-(2-isobutyl-2,7-diazaspiro[3.5]nonan-7-yl) pyrimidin-5-amine] displayed an IC50 in test [2] of under 100 nM.
On the same count and under the same terms, the same measure for `CC(C)CN1CC2(CCN(c3ncncc3Nc3ccc(F)cc3-c3ccccc3C(C)C)CC2)C1` [Example 246, N-(5-fluoro-2′-isopropyl-[1,1′-biphenyl]-2-yl)-4-(2-isobutyl-2,7-diazaspiro[3.5]nonan-7-yl) pyrimidin-5-amine]: under 100 nM; for `CCc1ccccc1-c1cc(F)ccc1Nc1cncnc1N1CCC2(CC1)CN(CC(C)C)C2` [Example 247, N-(2′-ethyl-S-fluoro-[1,1′-biphenyl]-2-yl)-4-(2-isobutyl-2,7-diazaspiro[3.5]nonan-7-yl) pyrimidin-5-amine]: under 100 nM.
